Data taken from patent US6787531B1, “Pharmaceutical composition for use as a contraceptive” (Schering AG, priority 1999, dated 2004).

What was measured:
[1] = Dissolution of drospirenone from tablets, USP XXIII Paddle Method; format: physicochemical; conditions: 900 ml water, 37° C., 50 rpm
Method: Instead of providing the drospirenone in micronized form, it is possible to dissolve it in a suitable solvent, e.g. methanol or ethyl acetate, and spray it onto the surface of inert carrier particles followed by incorporation of the particles containing drospirenone on their surface in the composition.
The rate of dissolution of drospirenone from the tablets prepared in Example 1 is determined by the USP XXIII Paddle Method using a USP Dissolution Test Apparatus 2 including 6 covered glass vessels and 6 paddles. Tablets are placed in 900 ml water at a temperature of 37° C. (±0.5° C.) and stirred at 50 rpm.

[2] = Relative bioavailability of drospirenone and ethinylestradiol from tablets versus oral suspension, open-label crossover study; format: in vivo; conditions: female, human, tablet 3 mg drospirenone + 0.03 mg ethinylestradiol, healthy women, serum concentrations, read-out: relative bioavailability from the tablets compared to the oral suspension
Method: 42 healthy women between 18 and 35 years of age were included in an open-label crossover study after their informed consent had been obtained. The aim of the study was to investigate the relative bioavailability of drospirenone and ethinylestradiol from a tablet formulation containing 3 mg drospirenone and 0.03 mg ethinylestradiol with reference to an oral suspension containing 6 mg of drospirenone and 0.06 mg ethinylestradiol per vial.
The bioavailability was determined using serum concentrations of each active agent as parameters. […] It was therefore concluded that both drospirenone and ethinylestradiol are completely released from the tablets in vivo.

[3] = Absolute bioavailability of drospirenone after oral administration; conditions: female, human, in vivo
[4] = Solubility and chemical stability of the active substances; format: physicochemical; conditions: for solubility: water and aqueous buffers at various pH values
Source text: To ensure good bioavailability of the compound, it is therefore advantageously provided in a form that promotes rapid dissolution thereof.
This has the added advantage of facilitating a more homogenous distribution of the ethinylestradiol throughout the composition which might otherwise be difficult to obtain because ethinylestradiol is incorporated in extremely small amounts. When ethinylestradiol is provided in micronized form, it preferably has the following particle size distribution as determined under the microscope: 100% of the particles have a diameter of ≦15.0 μm, 99% of the particles have a diameter of ≦12.5 μm, 95% of the particles have a diameter of ≦10.0 μm, and 50% of the particles have a diameter of ≦3.0 μm. Furthermore, no particle is larger than 20 μm, and […] have a diameter of ≧15 μm and ≦20 μm.

drospirenone dissolved within 30 minutes ([1]; film-coated tablets, FIG. 3) | drospirenone dissolved within 30 minutes ([1]; tablet cores, FIG. 2) | bioavailability [2] | bioavailability ([3]; oral administration of 2 mg drospirenone, 8 young healthy women) | bioavailability ([3]; oral microcrystalline suspension containing 3.13 mg drospirenone, 6 postmenopausal women) | stability under acid conditions ([4]; acid conditions) | stability under alkaline conditions ([4]; alkaline conditions) | solubility [4] | SMILES
more than 70% | more than 70% | 107% | 76% | 85% | rearranged to an inactive isomer | hydrolysed | sparingly soluble | C[C@]12CCC(=O)C=C1[C@@H]1C[C@@H]1[C@H]1[C@@H]3[C@@H]4C[C@@H]4[C@@]4(CCC(=O)O4)[C@@]3(C)CC[C@@H]12 [drospirenone, 6β,7β;15β,16β-dimethylene-3-oxo-17α-pregn-4-ene-21,17-carbolactone]
 |  | 117% |  |  |  |  | sparingly soluble | C#C[C@]1(O)CC[C@H]2[C@@H]3CCc4cc(O)ccc4[C@H]3CC[C@@]21C [ethinylestradiol, 17α-ethinylestradiol]
